# Source: patent publication US20180338899A1, “INHIBITORS FOR METHYLATION-RELATED ENZYMES HAT1 AND KAT8” (priority 2015, published 2018)
# Read-outs that look alike come from different tables or passages of the source.
# Legend:
# [1] = test system: various tumors (cancer and sarcoma types); test: Drug sensitivity test, anti-tumor effect on various tumors; assay type: cell-based; conditions: within an effective blood concentration or even at the minimum effective blood concentration or less; values only in FIG. 13
# Description: Moreover, how chlorpropamide exerted an anti-tumor effect on various tumors was investigated. Target tumor types, which are classified into cancer (epithelial malignant tumors), include thyroid cancer, malignant brain tumor, malignant melanoma, lung cancer, gastric cancer, liver cancer, pancreatic cancer, colon cancer, cervical cancer, ovarian cancer, bladder cancer, and neuroblastoma. Target tumor types, which are classified into sarcoma (non-epithelial malignant tumors), include fibrosarcoma and osteosarcoma.
# The concentrations of chlorpropamide were represented in a ratio when the maximum effective blood concentration was set to 1 as described above. […] The results mean that chlorpropamide can be used as an effective and safe anti-malignant tumor agent acting on various tumors.
# HAT1 [2] = test: Inhibitory effect of low-molecular-weight compounds on expression of HAT1 by RT-PCR; assay type: cell-based; conditions: FIG. 6
# HLF cells [3] = test: Cell death and cell growth suppression rate of HLF cells, 3D cell culture spheroid counter Cell3iMager; assay type: cell-based
# Description: In addition, chlorpropamide or MG149 was added to HLF cells on culture plates and the cell death and cell growth suppression rate were inspected using a 3D cell culture spheroid counter Cell 3 i Mager (SCREEN, Inc., Kyoto). […] The rows indicate the days of culture and the columns show the kinds and concentrations of the compounds. The concentrations of chlorpropamide were represented in a ratio when the maximum effective blood concentration was set to 1. As the maximum effective blood concentration of chlorpropamide was used 30 µg/ml (which is a value described in the interview form of a commercially available medicine containing chlorpropamide as an active ingredient).
# [4] = cited from earlier work
# HAT1 [5] = target: T1, HAT1 (Homo sapiens, UniProt O14929); test: FDA library screening (analysis service PLEXERA) and binding strength, HAT1
# T1 sequence (O14929 1-419): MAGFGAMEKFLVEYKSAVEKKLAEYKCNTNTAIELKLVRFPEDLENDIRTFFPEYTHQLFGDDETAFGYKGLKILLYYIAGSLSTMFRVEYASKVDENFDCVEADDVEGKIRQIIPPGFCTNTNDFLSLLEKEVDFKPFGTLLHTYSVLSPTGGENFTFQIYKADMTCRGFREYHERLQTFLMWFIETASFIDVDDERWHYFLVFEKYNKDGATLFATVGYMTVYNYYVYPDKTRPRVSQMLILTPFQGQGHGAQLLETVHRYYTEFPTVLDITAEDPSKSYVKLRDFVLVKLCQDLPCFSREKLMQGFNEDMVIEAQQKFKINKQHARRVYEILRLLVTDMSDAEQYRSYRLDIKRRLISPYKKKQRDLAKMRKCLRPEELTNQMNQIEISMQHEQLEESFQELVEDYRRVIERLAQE
# Description: (§1) Medicines containing each as an active ingredient (provided that each medicine has an indication other than that for malignant tumors) have already been commercially available.
# (§2) Meanwhile, medicines containing each as an active ingredient (provided that each medicine has an indication other than that for malignant tumors) have already been commercially available.
# KAT8 [6] = target: T2, KAT8 (Homo sapiens, UniProt Q9H7Z6); test: FDA library screening (analysis service PLEXERA) and binding strength, KAT8
# T2 sequence (Q9H7Z6 1-458): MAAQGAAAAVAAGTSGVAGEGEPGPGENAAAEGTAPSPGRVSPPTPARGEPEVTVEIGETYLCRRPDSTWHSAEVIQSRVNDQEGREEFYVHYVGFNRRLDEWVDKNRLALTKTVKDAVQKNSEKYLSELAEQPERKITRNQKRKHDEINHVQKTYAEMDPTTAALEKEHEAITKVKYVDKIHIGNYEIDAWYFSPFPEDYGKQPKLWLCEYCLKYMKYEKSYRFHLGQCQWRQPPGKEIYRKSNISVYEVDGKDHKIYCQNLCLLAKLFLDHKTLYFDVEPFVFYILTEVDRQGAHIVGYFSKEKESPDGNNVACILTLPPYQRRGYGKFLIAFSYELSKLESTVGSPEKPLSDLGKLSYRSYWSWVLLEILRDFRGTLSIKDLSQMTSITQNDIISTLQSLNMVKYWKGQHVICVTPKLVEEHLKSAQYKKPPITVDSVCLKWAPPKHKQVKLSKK
# Description: as §1, §2
# KAT8 [7] = test: Inhibitory effect of low-molecular-weight compounds on expression of KAT8 by RT-PCR; assay type: cell-based; conditions: FIG. 6
# HAT1 [8] = target: T1, HAT1; conditions: stated as property of the compound, no test described; cited from earlier work
# HLF cells [9] = test: Cell growth suppression of HLF cells on culture plates; assay type: cell-based; conditions: 360 μg/L, day 3 and day 7
# Description: First, HLF cells were cultured on culture plates with RPMI1640 for 7 days. […] In the figures, the “D” denotes days.
# Furthermore, rebamipide was added to HLF cells on a culture pate, and the effect on the cells was examined.
# KAT8 [10] = target: T2, KAT8; conditions: stated as property of the compound, no test described; cited from earlier work
# [11] = interview form of commercially available medicine
Molecule,cell growth suppression effect on various tumors [1],inhibitory effect on expression of HAT1 (HAT1 [2]),cell growth suppression effect (HLF cells [3]; within an effective blood concentration or even at the minimum effective blood concentration or less),"maximum effective blood concentration (Cmax) [4, 11]",inhibition of function of HAT1 (HAT1 [5]),inhibition of function of KAT8 (KAT8 [6]),inhibitory effect on expression of KAT8 (KAT8 [7]),inhibition of HAT1 (HAT1 [8]),cell growth suppression effect (HLF cells [9]),inhibition of KAT8 (KAT8 [10]),"maximum effective blood concentration (Cmax) ([4]; interview form, given as percent (external preparation / solution concentration))",cell growth suppression effect (HLF cells [3]; high concentration (30 μM))
CCCNC(=O)NS(=O)(=O)c1ccc(Cl)cc1 [chlorpropamide],elicited a cell growth suppression effect on each tumor,inhibitory effect,elicited a cell growth suppression effect,30 µg/mL,inhibited function of both HAT1 and KAT8,inhibited function of both HAT1 and KAT8,inhibitory effect,,,,,
colistin sulfate,,inhibitory effect,,4.4 µg/mL,inhibited function of both HAT1 and KAT8,inhibited function of both HAT1 and KAT8,inhibitory effect,,,,,
"O=C(NC(Cc1cc(=O)[nH]c2ccccc12)C(=O)O)c1ccc(Cl)cc1 (stereo not shown) [Rebamipide, rebamipide]",,,,0.36 µg/mL,,,,inhibits HAT1,no cell growth suppression effect,does not inhibit KAT8,,
Cc1cc(C(C)(C)CC(C)(C)C)ccc1OCCOCC[N+](C)(C)Cc1ccccc1.[Cl-] [methylbenzethonium chloride],,inhibitory effect,,1.93 µg/mL,inhibited function of both HAT1 and KAT8,inhibited function of both HAT1 and KAT8,inhibitory effect,,,,0.3%,
CCCCCCCc1ccc(CCc2cccc(O)c2C(=O)O)cc1 [MG149],,,,,,,,does not inhibit HAT1,,inhibits only KAT8,,failed to elicit a sufficient cell growth suppression effect
